Measured values reported in patent publication US20240092758A1, “IMIDAZOLO INDAZOLE COMPOUNDS AS JAK INHIBITORS” (Theravance Biopharma R&D IP, LLC, priority 2021, published 2024).

Columns and labels:
[1] = test system: IL-13 induced STAT6 phosphorylation in BEAS-2B human lung epithelial cells; test: Cellular JAKI potency assay (BEAS-2B); format: cell-based; conditions: Homo sapiens, BEAS-2B, BEAS-2B cells, read-out: BEAS2B pIC50 (converted)
Method: The JAKI cellular potency assay was carried out by measuring inhibition of interleukin-13 (IL-13, R&D Systems) induced STAT6 phosphorylation in BEAS-2B human lung epithelial cells (ATCC). BEAS-2B cells were grown at 37° C. in a 5% CO2 humidified incubator in 50% DMEM/50% F-12 medium (Life Technologies) supplemented with 10% FBS (Hyclone), 100 U/mL penicillin, 100 μg/mL streptomycin (Life Technologies), and 2 mM GlutaMAX (Life Technologies). On day 1 of the assay, cells were seeded at a 7,500 cells/well density in white poly-D-lysine-coated 384-well plates (Corning) with 25 μL medium and were allowed to adhere overnight in the incubator. On day 2 of the assay, the medium was removed and replaced with 12 μL of assay buffer (Hank's Balanced Salt Solution/HBSS, 25 mM HEPES, and 1 mg/ml bovine serum albumin/BSA) containing dose-responses of test compounds. Compounds were serially diluted in DMSO and then diluted another 1000-fold in media to bring the final DMSO concentration to 0.1%. Cells were incubated with test compounds at 37° C. for 1 h and followed by the addition of 12 μl of pre-warmed IL-13 (80 ng/mL in assay buffer) for stimulation. After incubating at 37° C. for 30 min, the assay buffer (containing compound and IL-13) was removed, and 10 μL of cell lysis buffer (25 mM HEPES, 0.1% SDS, 1% NP-40, 5 mM MgCl2, 1.3 mM EDTA, 1 mM EGTA, supplemented with Complete Ultra mini protease inhibitors and PhosSTOP from Roche Diagnostics). The plates were shaken at ambient temperature for 30 min before the addition of detection reagents. Levels of pSTAT6 were measured using the AlphaLISA SureFire Ultra pSTAT6 (Tyr641) assay kit from PerkinElmer. For dose-response analysis, percent inhibition data were plotted vs. compound concentrations, and IC50 values were determined from a 4-parameter robust fit model with the Graphpad Prism software. Results are expressed as the negative logarithm of the IC50 value, pIC50.
Test compounds having a lower IC50 value or higher pIC50 value in this assay show greater inhibition of IL-13 induced STAT6 phosphorylation.

JAK2 = JAK2 (Homo sapiens (Human), UniProt O60674); test: Biochemical JAK kinase assay (LanthaScreen), JAK2; conditions: for Ki: read-out: JAK2 pKi (converted)
Method: (§1) A panel of four LanthaScreen JAK biochemical assays (JAK1, 2, 3 and Tyk2) were carried in a common kinase reaction buffer (50 mM HEPES, pH 7.5, 0.01% Brij-35, 10 mM MgCl2, and 1 mM EGTA). Recombinant GST-tagged JAK enzymes and a GFP-tagged STAT1 peptide substrate were obtained from Life Technologies.
(§2) Serially diluted compounds were pre-incubated with each of the four JAK enzymes and the substrate in white 384-well microplates (Corning) at ambient temperature for 1 h. ATP was subsequently added to initiate the kinase reactions in 10 μL total volume, with 1% DMSO. The final enzyme concentrations for JAK1, 2, 3 and Tyk2 are 4.2 nM, 0.1 nM, 1 nM, and 0.25 nM respectively; the corresponding Km ATP concentrations used are 25 μM, 3 μM, 1.6 μM, and 10 μM; while the substrate concentration is 200 nM for all four assays. Kinase reactions were allowed to proceed for 1 hour at ambient temperature before a 10 μL preparation of EDTA (10 mM final concentration) and Tb-anti-pSTAT1 (pTyr701) antibody (Life Technologies, 2 nM final concentration) in TR-FRET dilution buffer (Life Technologies) was added. The plates were allowed to incubate at ambient temperature for 1 h before being read on the EnVision reader (Perkin Elmer). Emission ratio signals (520 nm/495 nm) were recorded and utilized to calculate the percent inhibition values based on DMSO and background controls.
(§3) For dose-response analysis, percent inhibition data were plotted vs. compound concentrations, and IC50 values were determined from a 4-parameter robust fit model with the Prism software (GraphPad Software). Results were expressed as pIC50 (negative logarithm of IC50) and subsequently converted to pKi (negative logarithm of dissociation constant, Ki) using the Cheng-Prusoff equation.
(§4) Test compounds having a lower Ki value or higher pKi value in the four JAK assays show greater inhibition of JAK activity.

JAK1 = JAK1 (Homo sapiens (Human), UniProt P23458); test: Biochemical JAK kinase assay (LanthaScreen), JAK1; conditions: for Ki: read-out: JAK1 pKi (converted)
Method: as §1, §2, §3, §4

JAK2, sequence (O60674 whole entry): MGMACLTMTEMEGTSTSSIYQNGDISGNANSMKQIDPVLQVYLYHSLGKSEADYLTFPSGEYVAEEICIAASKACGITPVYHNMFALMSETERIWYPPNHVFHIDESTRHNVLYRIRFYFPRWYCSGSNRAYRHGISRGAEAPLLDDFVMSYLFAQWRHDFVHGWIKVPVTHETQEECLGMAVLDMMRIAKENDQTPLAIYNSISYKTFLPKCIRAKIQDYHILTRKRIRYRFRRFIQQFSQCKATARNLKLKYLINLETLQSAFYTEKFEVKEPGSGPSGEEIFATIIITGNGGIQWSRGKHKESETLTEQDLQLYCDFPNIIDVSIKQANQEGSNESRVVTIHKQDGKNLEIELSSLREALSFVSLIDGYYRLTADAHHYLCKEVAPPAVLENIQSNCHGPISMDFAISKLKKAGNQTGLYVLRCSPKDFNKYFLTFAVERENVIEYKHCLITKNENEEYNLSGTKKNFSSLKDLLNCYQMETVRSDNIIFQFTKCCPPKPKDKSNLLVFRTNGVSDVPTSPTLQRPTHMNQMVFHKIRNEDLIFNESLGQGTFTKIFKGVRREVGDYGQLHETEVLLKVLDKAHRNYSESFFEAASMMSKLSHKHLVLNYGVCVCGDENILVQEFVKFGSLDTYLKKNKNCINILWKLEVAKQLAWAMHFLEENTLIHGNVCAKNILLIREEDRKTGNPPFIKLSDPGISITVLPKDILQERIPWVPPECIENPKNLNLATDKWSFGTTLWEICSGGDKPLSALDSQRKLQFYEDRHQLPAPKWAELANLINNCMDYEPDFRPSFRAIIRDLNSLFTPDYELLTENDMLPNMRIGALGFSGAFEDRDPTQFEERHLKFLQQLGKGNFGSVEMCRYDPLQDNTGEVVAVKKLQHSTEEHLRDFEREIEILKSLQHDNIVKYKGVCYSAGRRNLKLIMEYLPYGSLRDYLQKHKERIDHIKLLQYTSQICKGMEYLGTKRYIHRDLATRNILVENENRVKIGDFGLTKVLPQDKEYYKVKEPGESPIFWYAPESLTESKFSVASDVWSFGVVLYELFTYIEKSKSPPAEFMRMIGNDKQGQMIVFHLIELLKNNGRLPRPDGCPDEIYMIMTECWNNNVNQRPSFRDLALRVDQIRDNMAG
JAK1, sequence (P23458 whole entry): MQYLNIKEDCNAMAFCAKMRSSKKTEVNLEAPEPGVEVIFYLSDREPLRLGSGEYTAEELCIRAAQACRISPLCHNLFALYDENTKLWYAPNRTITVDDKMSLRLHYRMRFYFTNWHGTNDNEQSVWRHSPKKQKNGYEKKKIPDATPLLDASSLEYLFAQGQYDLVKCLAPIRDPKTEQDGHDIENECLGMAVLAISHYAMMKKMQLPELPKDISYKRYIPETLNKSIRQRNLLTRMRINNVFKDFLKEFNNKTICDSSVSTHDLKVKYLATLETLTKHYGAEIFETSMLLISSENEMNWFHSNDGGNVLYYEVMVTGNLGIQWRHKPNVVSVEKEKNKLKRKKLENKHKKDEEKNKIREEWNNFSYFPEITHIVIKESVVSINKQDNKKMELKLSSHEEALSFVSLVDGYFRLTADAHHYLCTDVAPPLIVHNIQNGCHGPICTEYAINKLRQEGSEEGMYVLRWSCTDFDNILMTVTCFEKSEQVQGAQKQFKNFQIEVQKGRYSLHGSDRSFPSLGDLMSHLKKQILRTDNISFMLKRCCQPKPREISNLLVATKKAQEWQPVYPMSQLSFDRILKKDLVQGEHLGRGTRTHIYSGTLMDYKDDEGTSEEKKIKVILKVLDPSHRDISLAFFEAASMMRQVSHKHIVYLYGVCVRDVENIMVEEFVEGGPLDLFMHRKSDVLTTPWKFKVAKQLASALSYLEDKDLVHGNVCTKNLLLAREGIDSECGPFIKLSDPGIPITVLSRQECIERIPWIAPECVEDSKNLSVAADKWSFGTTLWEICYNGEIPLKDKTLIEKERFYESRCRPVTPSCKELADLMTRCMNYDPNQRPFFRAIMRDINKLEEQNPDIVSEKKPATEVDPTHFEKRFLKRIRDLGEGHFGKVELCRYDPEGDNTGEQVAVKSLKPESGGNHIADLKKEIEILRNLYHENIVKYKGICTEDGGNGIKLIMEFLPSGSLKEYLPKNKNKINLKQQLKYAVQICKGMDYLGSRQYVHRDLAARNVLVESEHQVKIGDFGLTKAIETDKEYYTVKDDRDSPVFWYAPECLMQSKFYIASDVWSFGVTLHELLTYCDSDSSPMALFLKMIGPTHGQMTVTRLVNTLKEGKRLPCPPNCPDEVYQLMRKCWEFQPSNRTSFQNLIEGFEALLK

Structure (SMILES)	IC50 [1] [nM]	JAK2 pKi (JAK2)	Ki (JAK1) [nM]	Ki (JAK2) [nM]	JAK1 pKi (JAK1)
CCc1cc(O)ccc1-c1ccc2c(-c3nc(C4=CCN(C5CCNC5=O)C4)c[nH]3)n[nH]c2c1F (stereo not drawn) [Example 98]	31.6 to 100	A (A represents a pKi value ≥10 (Ki≤0.1 nM))	0.1 to 1	–	–
CCc1cc(O)ccc1-c1ccc2c(-c3nc(C4=CCN(CCc5ccccc5)CC4)c[nH]3)n[nH]c2c1F [Example 135]	100 to 316	–	1 to 10	1 to 10	–
CCc1cc(O)ccc1-c1ccc2c(-c3nc(C4=CCCN(CCSC)C4)c[nH]3)n[nH]c2c1 [Example 86]	10 to 31.6	–	0.1 to 1	0.1 to 1	–
CCc1cc(O)ccc1-c1ccc2c(-c3nc(C4=CCN(Cc5cnc[nH]5)CC4)c[nH]3)n[nH]c2c1F [Example 136]	31.6 to 100	–	0.1 to 1	0.1 to 1	–
CCc1cc(O)ccc1-c1ccc2c(-c3nc(C4=CCN(C5CCC(CO)CC5)C4)c[nH]3)n[nH]c2c1F (stereo not drawn) [Example 331]	10 to 31.6	–	–	0.1 to 1	A (A represents a pKi value ≥10 (Ki≤0.1 nM))
CCc1cc(O)ccc1-c1ccc2c(-c3nc(C4=CC[C@H](C)N(CC5COC5)C4)c[nH]3)n[nH]c2c1F [Example 267]	10 to 31.6	–	0.1 to 1	0.1 to 1	–
CCOC(=O)C1=C(c2c[nH]c(-c3n[nH]c4c(F)c(-c5ccc(O)cc5CC)ccc34)n2)CCNC1 [Example 323]	10 to 31.6	–	0.1 to 1	0.1 to 1	–
CCc1cc(O)ccc1-c1ccc2c(-c3nc(C4=C[C@H](CC(=O)N5CCN(C)CC5)NC4)c[nH]3)n[nH]c2c1F [Example 373]	31.6 to 100	A (A represents a pKi value ≥10 (Ki≤0.1 nM))	0.1 to 1	–	–
CCc1cc(O)ccc1-c1ccc2c(-c3nc(C4=C[C@H](CO)N(C5CCOCC5)C4)c[nH]3)n[nH]c2c1F [Example 274]	10 to 31.6	A (A represents a pKi value ≥10 (Ki≤0.1 nM))	–	–	A (A represents a pKi value ≥10 (Ki≤0.1 nM))
CCc1cc(O)ccc1-c1ccc2c(-c3nc(C4=CCNC(C(C)(C)C)C4)c[nH]3)n[nH]c2c1F (stereo not drawn) [Example 370]	31.6 to 100	–	1 to 10	0.1 to 1	–
CCc1cc(O)c(C)cc1-c1ccc2c(-c3nc(C4=CCNC4)c[nH]3)n[nH]c2c1F [Example 328]	10 to 31.6	–	0.1 to 1	1 to 10	–
CCc1cc(O)ccc1-c1ccc2c(-c3nc(C4=CCN(CC(=O)NC(C)(C)C)CC4)c[nH]3)n[nH]c2c1 [Example 79]	10 to 31.6	–	0.1 to 1	0.1 to 1	–
CCc1cc(O)ccc1-c1ccc2c(-c3nc(C4=CCCN(C(C)CO)C4)c[nH]3)n[nH]c2c1F (stereo not drawn) [Example 46]	10 to 31.6	–	0.1 to 1	0.1 to 1	–
CCc1cc(O)ccc1-c1ccc2c(-c3nc(C4=CCN(Cc5cn[nH]c5)CC4)c[nH]3)n[nH]c2c1F [Compound 11, 4-(3-(4-(1-((1H-pyrazol-4-yl)methyl)-1,2,3,6-tetrahydropyridin-4-yl)-1H-imidazol-2-yl)-7-fluoro-1H-indazol-6-yl)-3-ethylphenol]	10 to 31.6	A (A represents a pKi value ≥10 (Ki≤0.1 nM))	0.1 to 1	–	–
CCc1cc(O)ccc1-c1ccc2c(-c3nc(C4=CCNC5(CC5)C4)c[nH]3)n[nH]c2c1F [Example 352]	31.6 to 100	–	0.1 to 1	0.1 to 1	–
CCc1cc(O)ccc1-c1ccc2c(-c3nc(C4=C[C@H](CC(=O)N5CCCC5)NC4)c[nH]3)n[nH]c2c1F [Example 360]	31.6 to 100	A (A represents a pKi value ≥10 (Ki≤0.1 nM))	–	–	A (A represents a pKi value ≥10 (Ki≤0.1 nM))
CCOC(=O)C1=C(c2c[nH]c(-c3n[nH]c4c(F)c(-c5ccc(O)cc5CC)ccc34)n2)CNCC1 [Example 301]	10 to 31.6	–	–	0.1 to 1	A (A represents a pKi value ≥10 (Ki≤0.1 nM))

Structure (SMILES)	IC50 [1] [nM]	JAK2 pKi (JAK2)	Ki (JAK1) [nM]	Ki (JAK2) [nM]	JAK1 pKi (JAK1)
CCc1cc(O)ccc1-c1ccc2c(-c3nc(C4=CCN(CC5CCCOC5)CC4)c[nH]3)n[nH]c2c1F (stereo not drawn) [Example 63]	10 to 31.6	–	0.1 to 1	0.1 to 1	–
CCc1cc(O)ccc1-c1ccc2c(-c3nc(C4=CCNCC4C)c[nH]3)n[nH]c2c1F (stereo not drawn) [Example 324]	10 to 31.6	–	0.1 to 1	0.1 to 1	–
CCc1cc(O)ccc1-c1ccc2c(-c3nc(C4=CCN[C@@H](CO)C4)c[nH]3)n[nH]c2c1F [Example 347]	31.6 to 100	A (A represents a pKi value ≥10 (Ki≤0.1 nM))	–	–	A (A represents a pKi value ≥10 (Ki≤0.1 nM))
CCc1cc(O)ccc1-c1ccc2c(-c3nc(C4=CCN(S(C)(=O)=O)C4)c[nH]3)n[nH]c2c1 [Example 167]	3.16 to 10	–	0.1 to 1	1 to 10	–
CCc1cc(O)ccc1-c1ccc2c(-c3nc(C4=C[C@@H](CC(=O)N(C)C)NC4)c[nH]3)n[nH]c2c1F [Example 256]	31.6 to 100	A (A represents a pKi value ≥10 (Ki≤0.1 nM))	–	–	A (A represents a pKi value ≥10 (Ki≤0.1 nM))
CCc1cc(O)ccc1-c1ccc2c(-c3nc(C4=CCCNC4C)c[nH]3)n[nH]c2c1F (stereo not drawn) [Example 237]	10 to 31.6	A (A represents a pKi value ≥10 (Ki≤0.1 nM))	0.1 to 1	–	–
CCc1cc(O)ccc1-c1ccc2c(-c3nc(C4=CCN(CCCNC(=O)C(C)C)CC4)c[nH]3)n[nH]c2c1 [Example 117]	3.16 to 10	A (A represents a pKi value ≥10 (Ki≤0.1 nM))	–	–	A (A represents a pKi value ≥10 (Ki≤0.1 nM))
CCc1cc(O)ccc1-c1ccc2c(-c3nc(C4=C[C@@H](CO)N(C)C4)c[nH]3)n[nH]c2c1F [Example 344]	10 to 31.6	–	0.1 to 1	0.1 to 1	–
CCc1cc(O)ccc1-c1ccc2c(-c3nc(C4=CC(C)CNC4)c[nH]3)n[nH]c2c1F (stereo not drawn) [Example 327]	10 to 31.6	–	0.1 to 1	0.1 to 1	–
CCc1cc(O)ccc1-c1ccc2c(-c3nc(C4=CCN(CCC5(O)CC5)CC4)c[nH]3)n[nH]c2c1F [Example 322]	10 to 31.6	–	0.1 to 1	0.1 to 1	–
CCc1cc(O)ccc1-c1ccc2c(-c3nc(C4=CC[C@H](C)N(C5CCOCC5)C4)c[nH]3)n[nH]c2c1F [Example 268]	10 to 31.6	–	0.1 to 1	0.1 to 1	–
CCc1cc(O)ccc1-c1ccc2c(-c3nc(C4=C[C@@H](CC#N)NC4)c[nH]3)n[nH]c2c1 [Example 248]	10 to 31.6	–	0.1 to 1	0.1 to 1	–
CCc1cc(O)ccc1-c1ccc2c(-c3nc(C4=CCNC(C(C)C)C4)c[nH]3)n[nH]c2c1F (stereo not drawn) [Example 368]	31.6 to 100	–	0.1 to 1	0.1 to 1	–
CCc1cc(O)ccc1-c1ccc2c(-c3nc(C4=CC[C@H](C)N(CCS(C)(=O)=O)C4)c[nH]3)n[nH]c2c1F [Example 276]	31.6 to 100	–	1 to 10	0.1 to 1	–
CCc1cc(O)ccc1-c1ccc2c(-c3nc(C4=C[C@@H](C(=O)OC)NC4)c[nH]3)n[nH]c2c1F [Example 251]	10 to 31.6	–	0.1 to 1	0.1 to 1	–
CCc1cc(O)ccc1-c1ccc2c(-c3nc(C4=CCCNC4C)c[nH]3)n[nH]c2c1 (stereo not drawn) [Example 233]	10 to 31.6	–	0.1 to 1	0.1 to 1	–
